Peptide text beside a SMILES is read from it. * marks the point of attachment. pNA = O=[N+]([O-])c1ccc(N*)cc1
How the values were obtained:
euglobulin thrombin = target: T1, euglobulin thrombin (Homo sapiens, UniProt P00734); assay: Decay constants of thrombin in plasma; format: biochemical
T1 construct: The euglobulin thrombin fraction was prepared from defibrinated human plasma; from tissue; host or cells: defibrinated human plasma (euglobulin fraction, acid precipitation, method of Josso and Prou-Wartelle)
Method: (§1) To this mixture was added 10 μL of a thrombin preparation to achieve a final concentration of 100 nM. At regular time intervals (5-10 s) 10 μL samples were subsampled into 490 μL buffer B which contained 200 μM of S2238 to determine thrombin activity. After 2 min the reaction was stopped by adding 300 μL 1M citric acid. The moment of sampling and stopping were recorded on a personal computer with pushbutton-equipped pipettes. The optical density was then read at 405 nm and the obtained amidolytic activities were used to calculate the decay constants. The obtained decay constant is the sum of the decay constants of the reaction of thrombin with antithrombin III (k1) and α2 -macroglobulin (k2).
as §1, with “Decay constants of thrombin in plasma: To 120 μL defibrinated plasma was added: 50 μL of buffer A which contained the substances to be tested. To” for “To”, “was” for “was then”

thrombin = thrombin (Homo sapiens, UniProt P00734); assay: Kinetic parameters of hydrolysis of the substrates by thrombin in buffer A at 37° C. (Example 4, Table 3); format: biochemical; design: Pure human α-thrombin; gift of Dr. T. Lindhout (University of Limburg, Maastricht); conditions: buffer A, 37° C.
Method: (§2) Kinetic parameters: The hydrolysis experiments were run in buffer A at 37° C. The liberation of p-nitroaniline was monitored at 405 nm in a dual wavelength (405-546 nm) spectrophotometer made in our workshop, using a personal computer for data recording. In a polystyrene microcuvette (total volume 500 μL), buffer A and substrate solution were added to obtain a final substrate concentration between 200 to 2000 μM. After 5 min of incubation at 37° C., enzyme solution was added to achieve a final concentration between 0.5 to 50 nM. The measurement was carried out at 37° C. in a thermostated cuvette-holder. The Michaelis constant (Km) and the catalytic constant (kcat) were obtained by measuring the initial reaction velocities at different substrate concentrations. The data obtained were fitted by linear regression on the Michaelis-Menten equation.
(§3) Kinetic parameters: The Km and kcat values for each substrate were determined at an enzyme concentration of 0.5-50 nM (thrombin) and 50 nM factor Xa. From the initial reaction velocities, measured for at least six substrate concentrations between 200 and 2000 μM, the Km and kcat values were calculated by linear regression on the Michaelis-Menten curve. Table 3 gives an overview of the kinetic parameters of the different substrates hydrolyzed by thrombin and by factor Xa in buffer A.

factor Xa = target: T2, factor Xa (Homo sapiens, UniProt P00742); assay: Kinetic parameters of hydrolysis of the substrates by factor Xa in buffer A at 37° C. (Example 4, Table 3); format: biochemical; conditions: buffer A, 37° C., 50 nM factor Xa
T2 construct: human factor Xa samples; gift of Dr. T. Lindhout (University of Limburg, Maastricht)
T2 sequence (P00742 41-179 limits assumed): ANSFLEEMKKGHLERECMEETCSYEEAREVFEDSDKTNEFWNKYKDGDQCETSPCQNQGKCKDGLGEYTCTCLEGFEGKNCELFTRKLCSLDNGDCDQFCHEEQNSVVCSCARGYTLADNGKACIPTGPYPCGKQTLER
T2 sequence (P00742 235-488 limits assumed): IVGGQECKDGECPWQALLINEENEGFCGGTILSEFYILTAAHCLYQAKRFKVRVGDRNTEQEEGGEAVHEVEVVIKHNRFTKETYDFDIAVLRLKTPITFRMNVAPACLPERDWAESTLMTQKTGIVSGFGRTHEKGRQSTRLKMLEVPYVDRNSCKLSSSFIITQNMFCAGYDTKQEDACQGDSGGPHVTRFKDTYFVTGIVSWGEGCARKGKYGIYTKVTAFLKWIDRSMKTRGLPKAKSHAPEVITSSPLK
Method: as §2, §3

[1] = test system: thrombin generation in tissue factor triggered plasma; assay: Manual determination of thrombin generation in plasma (subsampling method) and calculated prothrombinase activity; format: biochemical, human; conditions: for influence on the prothrombinase complex / coagulation cascade: calculated from decay constants and manual thrombin generation curves
Method: Manual determination of thrombin generation in plasma: Extrinsic pathway: To 480 μL defibrinated plasma were added: 172 μL buffer A which contains the substrate at concentrations between 0 to 2000 μM and 20 μL of a 54 μM phospholipid solution (final concentration: 1.5 μM). After incubation of 4 min at 37° C., 24 μL tissue factor (undiluted) was added. Thrombin formation started at zero time by adding 24 μL of a 0.5 M CaCl2 solution (final concentration: 16.67 mM). At regular time intervals of 12 s samples of 10 μL were subsampled as described above. From the amidolytic activities thus obtained, the thrombin generation curve can be drawn. […] Intrinsic pathway: To 480 μL defibrinated plasma were added: 168 μL buffer A which contains the substrate at concentrations between 0 to 1000 μM and 48 μL Actin FS (undiluted). This mixture was intensively mixed and incubated for 4 min at 37° C. Thrombin generation was started at zero time by adding 24 μL of a 0.5 M CaCl2 solution (final concentration: 16.67 mM).
Influence of the substrate on the prothrombinase-complex: With the obtained decay constants and from the curves obtained by the subsampling method we calculated the course of prothrombin conversion and the course of prothrombinase concentration.
Manual determination of thrombin generation in plasma: Extrinsic pathway: To 480 μL defibrinated plasma were added: 172 μL buffer A which contained the substrate at concentrations between 0 to 2000 μM and 20 μL of a 54 μM phospholipid solution (final concentration: 1.5 μM). After incubation for 4 min at 37° C., 24 μL tissue factor (undiluted) was added. Thrombin formation started at zero time by adding 24 μL of a 0.5 M CaCl2 solution (final concentration: 16.67 mM). At regular time intervals of 12 s samples of 10 μL were subsampled as described above. From the amidolytic activities thus obtained, the thrombin generation curve can be drawn.
Influence of the substrate on the prothrombinase-compzex: With the obtained decay constants and from the curves obtained by the subsampling method we calculated the course of prothrombin conversion and the course of prothrombinase concentration.

CC(C)[C@H](NC(=O)OCCS(C)(=O)=O)C(=O)N[C@@H](CCCNC(=N)N)C(=O)Nc1ccc([N+](=O)[O-])cc1.Cl [Msc-Val-Arg-pNA.HCl]
(k1,corr) = k1,corr divided by μM AT-III (euglobulin thrombin; [S] 200 μM in plasma): 18300 M⁻¹ s⁻¹ | k1,corr : k1 after correcting for k2,M and 0.170 (euglobulin thrombin; [S] 200 μM in plasma): 1.590 min⁻¹ | k1 : AT-III dependent decay of thrombin (euglobulin thrombin; [S] 200 μM in plasma): 1.729 min⁻¹ | k2 : α2 M dependent decay of thrombin (euglobulin thrombin; [S] 200 μM in plasma): 0.229 min⁻¹ | koverall (euglobulin thrombin; [S] 200 μM in plasma): 1.958 min⁻¹ | t1/2 (euglobulin thrombin; [S] 200 μM in plasma): 21.24 s | (k1,corr) = k1,corr divided by μM AT-III (euglobulin thrombin; [S] 500 μM in plasma): 16600 M⁻¹ s⁻¹ | k1,corr : k1 after correcting for k2,M and 0.170 (euglobulin thrombin; [S] 500 μM in plasma): 1.444 min⁻¹ | k1 : AT-III dependent decay of thrombin (euglobulin thrombin; [S] 500 μM in plasma): 1.614 min⁻¹ | k2 : α2 M dependent decay of thrombin (euglobulin thrombin; [S] 500 μM in plasma): 0.178 min⁻¹ | koverall (euglobulin thrombin; [S] 500 μM in plasma): 1.792 min⁻¹ | t1/2 (euglobulin thrombin; [S] 500 μM in plasma): 23.22 s | (k1,corr) = k1,corr divided by μM AT-III (euglobulin thrombin; [S] 1000 μM in plasma): 9100 M⁻¹ s⁻¹ | k1,corr : k1 after correcting for k2,M and 0.170 (euglobulin thrombin; [S] 1000 μM in plasma): 0.790 min⁻¹ | k1 : AT-III dependent decay of thrombin (euglobulin thrombin; [S] 1000 μM in plasma): 0.980 min⁻¹ | k2 : α2 M dependent decay of thrombin (euglobulin thrombin; [S] 1000 μM in plasma): 0.124 min⁻¹ | koverall (euglobulin thrombin; [S] 1000 μM in plasma): 1.104 min⁻¹ | t1/2 (euglobulin thrombin; [S] 1000 μM in plasma): 37.70 s | Km (thrombin): 882 µM | Thrombin kcat (thrombin): 0.79 s⁻¹ | Thrombin kcat /Km (thrombin): 894 M/s | Factor Xa kcat (factor Xa): 4.69 s⁻¹ | Factor Xa kcat /Km (factor Xa): 491 M/s | Km (factor Xa): 9550 µM | AA: amidolytic activity (maximum) ([1]; [S] 200 μM): 388.15 mOD/min | PT: prothrombinase concentration (maximum) ([1]; [S] 200 μM): 1119 mOD/min | T: thrombin concentration (maximum) ([1]; [S] 200 μM): 371.24 mOD/min | t: time point at which maximum of amidolytic activity is achieved ([1]; [S] 200 μM): 60 s | t: time point at which maximum of prothrombinase concentration is achieved ([1]; [S] 200 μM): 24 s | t: time point at which maximum of thrombin concentration is achieved ([1]; [S] 200 μM): 60 s | k2,M : k2 determined by the subsampling method ([1]; [S] 200 μM in plasma): 0.198 min⁻¹ | AA: amidolytic activity (maximum) ([1]; [S] 500 μM): 387.15 mOD/min | PT: prothrombinase concentration (maximum) ([1]; [S] 500 μM): 1090 mOD/min | T: thrombin concentration (maximum) ([1]; [S] 500 μM): 374.80 mOD/min | t: time point at which maximum of amidolytic activity is achieved ([1]; [S] 500 μM): 60 s | t: time point at which maximum of prothrombinase concentration is achieved ([1]; [S] 500 μM): 24 s | t: time point at which maximum of thrombin concentration is achieved ([1]; [S] 500 μM): 60 s | k2,M : k2 determined by the subsampling method ([1]; [S] 500 μM in plasma): 0.178 min⁻¹ | AA: amidolytic activity (maximum) ([1]; [S] 1000 μM): 456.42 mOD/min | PT: prothrombinase concentration (maximum) ([1]; [S] 1000 μM): 1346 mOD/min | T: thrombin concentration (maximum) ([1]; [S] 1000 μM): 443.82 mOD/min | t: time point at which maximum of amidolytic activity is achieved ([1]; [S] 1000 μM): 60 s | t: time point at which maximum of prothrombinase concentration is achieved ([1]; [S] 1000 μM): 24 s | t: time point at which maximum of thrombin concentration is achieved ([1]; [S] 1000 μM): 60 s | k2,M : k2 determined by the subsampling method ([1]; [S] 1000 μM in plasma): 0.144 min⁻¹ | influence on the prothrombinase complex / coagulation cascade [1]: no inhibition of the prothrombinase activity

CC(C)[C@H](NC(=O)CNC(=O)CNC(=O)[C@@H](N)CCC(=O)O)C(=O)N[C@@H](CCCNC(=N)N)C(=O)Nc1ccc([N+](=O)[O-])cc1 [2HCl.H-Glu-Gly-Gly-Val-Arg-pNA] (H-EGGVR-pNA)
(k1,corr) = k1,corr divided by μM AT-III (euglobulin thrombin; [S] 200 μM in plasma): 20380 M⁻¹ s⁻¹ | k1,corr : k1 after correcting for k2,M and 0.170 (euglobulin thrombin; [S] 200 μM in plasma): 1.769 min⁻¹ | k1 : AT-III dependent decay of thrombin (euglobulin thrombin; [S] 200 μM in plasma): 1.946 min⁻¹ | k2 : α2 M dependent decay of thrombin (euglobulin thrombin; [S] 200 μM in plasma): 0.213 min⁻¹ | koverall (euglobulin thrombin; [S] 200 μM in plasma): 2.159 min⁻¹ | t1/2 (euglobulin thrombin; [S] 200 μM in plasma): 19.26 s | (k1,corr) = k1,corr divided by μM AT-III (euglobulin thrombin; [S] 500 μM in plasma): 19150 M⁻¹ s⁻¹ | k1,corr : k1 after correcting for k2,M and 0.170 (euglobulin thrombin; [S] 500 μM in plasma): 1.662 min⁻¹ | k1 : AT-III dependent decay of thrombin (euglobulin thrombin; [S] 500 μM in plasma): 1.733 min⁻¹ | k2 : α2 M dependent decay of thrombin (euglobulin thrombin; [S] 500 μM in plasma): 0.291 min⁻¹ | koverall (euglobulin thrombin; [S] 500 μM in plasma): 2.024 min⁻¹ | t1/2 (euglobulin thrombin; [S] 500 μM in plasma): 21.04 s | (k1,corr) = k1,corr divided by μM AT-III (euglobulin thrombin; [S] 1000 μM in plasma): 16400 M⁻¹ s⁻¹ | k1,corr : k1 after correcting for k2,M and 0.170 (euglobulin thrombin; [S] 1000 μM in plasma): 1.427 min⁻¹ | k1 : AT-III dependent decay of thrombin (euglobulin thrombin; [S] 1000 μM in plasma): 1.594 min⁻¹ | k2 : α2 M dependent decay of thrombin (euglobulin thrombin; [S] 1000 μM in plasma): 0.172 min⁻¹ | koverall (euglobulin thrombin; [S] 1000 μM in plasma): 1.766 min⁻¹ | t1/2 (euglobulin thrombin; [S] 1000 μM in plasma): 23.56 s | Km (thrombin): 1010 µM | Thrombin kcat (thrombin): 0.55 s⁻¹ | Thrombin kcat /Km (thrombin): 542 M/s | Factor Xa kcat (factor Xa): 0.42 s⁻¹ | Factor Xa kcat /Km (factor Xa): 192 M/s | Km (factor Xa): 2190 µM | AA: amidolytic activity (maximum) ([1]; [S] 200 μM): 350.62 mOD/min | PT: prothrombinase concentration (maximum) ([1]; [S] 200 μM): 1086 mOD/min | T: thrombin concentration (maximum) ([1]; [S] 200 μM): 335.47 mOD/min | t: time point at which maximum of amidolytic activity is achieved ([1]; [S] 200 μM): 60 s | t: time point at which maximum of prothrombinase concentration is achieved ([1]; [S] 200 μM): 24 s | t: time point at which maximum of thrombin concentration is achieved ([1]; [S] 200 μM): 60 s | k2,M : k2 determined by the subsampling method ([1]; [S] 200 μM in plasma): 0.220 min⁻¹ | AA: amidolytic activity (maximum) ([1]; [S] 500 μM): 376.42 mOD/min | PT: prothrombinase concentration (maximum) ([1]; [S] 500 μM): 1122 mOD/min | T: thrombin concentration (maximum) ([1]; [S] 500 μM): 359.48 mOD/min | t: time point at which maximum of amidolytic activity is achieved ([1]; [S] 500 μM): 60 s | t: time point at which maximum of prothrombinase concentration is achieved ([1]; [S] 500 μM): 24 s | t: time point at which maximum of thrombin concentration is achieved ([1]; [S] 500 μM): 60 s | k2,M : k2 determined by the subsampling method ([1]; [S] 500 μM in plasma): 0.192 min⁻¹ | AA: amidolytic activity (maximum) ([1]; [S] 1000 μM): 409.85 mOD/min | PT: prothrombinase concentration (maximum) ([1]; [S] 1000 μM): 1149 mOD/min | T: thrombin concentration (maximum) ([1]; [S] 1000 μM): 396.23 mOD/min | t: time point at which maximum of amidolytic activity is achieved ([1]; [S] 1000 μM): 60 s | t: time point at which maximum of prothrombinase concentration is achieved ([1]; [S] 1000 μM): 24 s | t: time point at which maximum of thrombin concentration is achieved ([1]; [S] 1000 μM): 60 s | k2,M : k2 determined by the subsampling method ([1]; [S] 1000 μM in plasma): 0.169 min⁻¹ | influence on the prothrombinase complex / coagulation cascade [1]: no inhibition of the prothrombinase activity

From US6207399A, “Methods of determining endogenous thrombin potential (ETP) and thrombin substrates for use in said methods” (Hemker; Hendrik Coenraad, priority 1995, dated 2001)
